Experimental data reported in US10906909B2, “Treatment of cognitive and mood symptoms in neurodegenerative and neuropsychiatric disorders with ALPHA5-containing GABAA receptor agonists” (UWM Research Foundation, Inc., priority 2016, dated 2021).
“Also recorded” adds a separate entry of the source.

Experiments:
HEPG2 = test: Cytotoxicity assay (CellTiter-Glo), HEPG2; type: cell-based, human; details: 48 hours incubation
Description: (§1) Human liver hepatocellular carcinoma (HEPG2) and human embryonic kidney 293 (HEK293) cell lines were purchased (ATCC) and cultured in 75 cm2 flasks (CellStar). Cells were grown in DMEM/High Glucose (Hyclone, #SH3024301) media to which non-essential amino acids (Hyclone, #SH30238.01), 10 mM HEPES (Hyclone, #SH302237.01), 5×106 units of penicillin and streptomycin (Hyclone, #SV30010), and 10% of heat inactivated fetal bovine serum (Gibco, #10082147) were added. Cells were harvested using 0.05% Trypsin (Hyclone, #SH3023601), washed with PBS, and dispensed into sterile white, optical bottom 384-well plates (NUNC, #142762). After three hours, small molecule solutions were transferred with a Tecan Freedom EVO liquid handling system equipped with a 100 nL pin tool (V&P Scientific). The controls (E)-10-(bromotriphenylphosphoranyl)decyl 4-(4-(tert-butyl)phenyl)-4-oxobut-2-enoate (400 μM in DMSO, positive control) and DMSO (negative control). The cells were incubated for 48 hours followed by the addition of CellTiter-Glo™, a luminescence-based cell viability assay (Promega, Madison, Wis.). All luminescence readings were performed on a Tecan Infinite M1000 plate reader. The assay was carried out in quadruplet with three independent runs. The data was normalized to the controls and analyzed by nonlinear regression (GraphPad Prism).

HEK293 = test: Cytotoxicity assay (CellTiter-Glo), HEK293; type: cell-based, human; details: 48 hours incubation
Description: as §1

C57B1/6 male mice = test: Forced swim test (FST); type: in vivo, mouse; details: vs vehicle
Description: C57B1/6 male mice were ordered from Jackson Laboratories at 8 weeks-old and were group housed (4-5 mice/cage) under normal housing conditions (12 h light ON cycle starting at 7 am/water and food ad libitum) for one week. During this week, animals were handled in order to habituate them to the experimenter and to reduce their anxiety-like response during behavioral testing.
All drugs were diluted in a vehicle solution containing 85% H2O, 14% propylene glycol (Sigma Aldrich) and 1% Tween 80 (Sigma Aldrich). Working solutions were prepared at a concentration of 20 mg/mL and administered i.p. adjusted to the body weight of each animal. Doses used were either 1, 5 or 10 mg/kg. For all FST experiments, animals were injected i.p. with vehicle or αPAM.
Mice were tested in the forced swim test (FST) (measure of despair-like behavior used for the assessment of antidepressant efficacy). Animals were sub-chronically injected three times (24, 20 and 1 hour before testing) as per standard methods in the field for testing potential antidepressant compounds.
One hour after the last injection, mice were placed in an inescapable transparent tank filled with water (25 cm, 25-26° C.), where they are unable to touch the bottom and unable to jump out of the tank. Animal were recorded for a period of 6 minutes and a manual count of the immobile time in the tank was measured for the 2-6 minutes period by an experimenter blinded to the mouse treatment history. Immobility is defined as the minimum amount of movement to stay afloat. Compounds that reduced immobility in the FST are considered to have potential antidepressant actions.

[1] = molecular target: T1, alpha 5 subunit GABAA receptor (Rattus norvegicus, UniProt P18508+P19969); test: Electrophysiology, whole-cell patch clamp in transfected HEK-293T cells; type: cell-based; details: for percent of response to GABA: 1 μM compound, HEK-293T cells transfected with alpha 5 subunit; for relative size of response to GABA among the four compounds: 1 μM, alpha 5, FIG. 26
T1 construct: Full-length cDNAs for GABAA receptor subtypes; expressed in transfected cells; host or cells: HEK-293T (GenHunter, Nashville, Tenn.), transient calcium phosphate transfection
Description: Transfection of Mammalian Cells and Electrophysiological Recordings. Full-length cDNAs for GABAA receptor subtypes (generously provided by Dr. Robert Macdonald, Vanderbilt University and Dr. David Weiss, University of Texas Health Science Center, San Antonio, Tex.) in mammalian expression vectors were transfected into the human embryonic kidney cell line HEK-293T (GenHunter, Nashville, Tenn.) (Chestnut et al, 1996, J. Immunol. Methods 193, 17-27). All subtypes were rat clones except for α2, which was a human clone. Cells were maintained in Dulbecco's modified Eagle's medium (DMEM) plus 10% fetal bovine serum, 100 IU/mL penicillin, and 100 μg/mL streptomycin.
HEK-293T cells were transiently transfected using calcium phosphate precipitation. Plasmids encoding GABAA receptor subtype cDNAs were added to the cells in 1:1:1 ratios (α:β:γ) of 2 μg each.31 For identification of positively transfected cells, 1 μg of the plasmid pHook-1 (Invitrogen Life Technologies, Grand Island N.Y.) containing cDNA encoding the surface antibody sFv was also transfected into the cells.11 Following a 4-6 h incubation at 3% CO2, the cells were treated with a 15% glycerol solution in BBS buffer (50 mM BES(N,N-bis[2-hydroxyethyl]-2-aminoethanesulfonic acid), 280 mM NaCl, 1.5 mM Na2HPO4) for 30 s. The selection procedure for pHook expression was performed 18-52 h later. The cells were passaged and mixed for 30-60 min with 3-5 μL of magnetic beads coated with antigen for the pHook antibody (approximately 6×105 beads).11 Bead-coated cells were isolated using a magnetic stand. The selected cells were resuspended into supplemented DMEM, plated onto glass coverslips treated with poly L-lysine and collagen, and used for recordings the next day.
Cells were patch-clamped at −50 mV in the whole-cell recording configuration. The bath solution consisted of (in mM): 142 NaCl, 8.1 KCl, 6 MgCl2, 1 CaCl2), and 10 HEPES (4-(2-hydroxyethyl)-1-piperazineethanesulfonic acid) with pH=7.4 and osmolarity adjusted to 295-305 mOsm. Recording electrodes were filled with a solution of (in mM) 153 KCl, 1 MgCl2, 5 K-EGTA (ethylene glycol-bis(β-aminoethyl ether N,N,N′N′-tetraacetate), and 10 HEPES with pH=7.4 and osmolarity adjusted to 295-305 mOsm. GABA was diluted into the bath solution from freshly made or frozen stocks in water. Compounds were dissolved in DMSO and diluted into bath solution with the highest DMSO level applied to cells of 0.01%. Patch pipettes were pulled from borosilicate glass (World Precision Instruments, Sarasota, Fla.) on a two-stage puller (Narishige, Japan) to a resistance of 5-10 MO. Solutions containing GABA or GABA+ compounds were applied to cells for 5 s. using a 3-barrelled solution delivery device controlled by a computer-driven stepper motor (SF-77B, Harvard Apparatus, Holliston, Mass., open tip exchange time of <50 ms). There was a continuous flow of external solution through the chamber. Currents were recorded with an Axon 200B (Foster City, Calif.) patch clamp amplifier.
Whole-cell currents were analyzed using the programs Clampfit (pClamp9 suite, Axon Instruments, Foster City, Calif.) and Prism (Graphpad, San Diego, Calif.). Concentration-response data was fit with a four-parameter logistic equation (current=[minimum current+(maximum current−minimum current)]/1+(10(logEC50−log[modulator])n) where n represents the Hill number. All fits were made to normalized data with current expressed as a percentage of the response to GABA alone for each cell.

[2] = 5 mg/kg i.p. 24, 20, 1 hour before testing
[3] = 10 mg/kg i.p. 24, 20, 1 hour before testing

T1 sequence (P19969 32-464 limits assumed): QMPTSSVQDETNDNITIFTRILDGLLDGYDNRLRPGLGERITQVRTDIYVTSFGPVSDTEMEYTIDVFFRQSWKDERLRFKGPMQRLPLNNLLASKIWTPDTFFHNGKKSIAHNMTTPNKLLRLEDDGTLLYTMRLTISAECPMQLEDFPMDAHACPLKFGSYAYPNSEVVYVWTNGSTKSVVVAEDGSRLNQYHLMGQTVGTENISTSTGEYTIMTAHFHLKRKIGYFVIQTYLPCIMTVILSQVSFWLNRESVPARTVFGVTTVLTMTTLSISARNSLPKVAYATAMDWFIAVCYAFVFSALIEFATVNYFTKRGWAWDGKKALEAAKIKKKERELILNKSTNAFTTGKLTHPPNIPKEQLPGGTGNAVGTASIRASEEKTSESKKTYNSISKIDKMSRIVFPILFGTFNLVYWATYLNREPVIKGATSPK
T1 sequence (P63079 26-473 partner): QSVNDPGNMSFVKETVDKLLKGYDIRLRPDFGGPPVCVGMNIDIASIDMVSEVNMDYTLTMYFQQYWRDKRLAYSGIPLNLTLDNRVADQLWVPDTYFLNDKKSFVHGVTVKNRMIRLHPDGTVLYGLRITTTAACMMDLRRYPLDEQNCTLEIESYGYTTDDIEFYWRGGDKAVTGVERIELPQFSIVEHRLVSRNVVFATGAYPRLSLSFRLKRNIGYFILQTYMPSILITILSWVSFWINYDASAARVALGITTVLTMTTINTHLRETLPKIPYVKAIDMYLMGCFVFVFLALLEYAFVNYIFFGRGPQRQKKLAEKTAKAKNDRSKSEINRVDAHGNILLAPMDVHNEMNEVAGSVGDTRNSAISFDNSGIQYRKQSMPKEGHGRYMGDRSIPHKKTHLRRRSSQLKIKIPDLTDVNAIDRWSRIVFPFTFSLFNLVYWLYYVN
T1 sequence (P18508 39-466): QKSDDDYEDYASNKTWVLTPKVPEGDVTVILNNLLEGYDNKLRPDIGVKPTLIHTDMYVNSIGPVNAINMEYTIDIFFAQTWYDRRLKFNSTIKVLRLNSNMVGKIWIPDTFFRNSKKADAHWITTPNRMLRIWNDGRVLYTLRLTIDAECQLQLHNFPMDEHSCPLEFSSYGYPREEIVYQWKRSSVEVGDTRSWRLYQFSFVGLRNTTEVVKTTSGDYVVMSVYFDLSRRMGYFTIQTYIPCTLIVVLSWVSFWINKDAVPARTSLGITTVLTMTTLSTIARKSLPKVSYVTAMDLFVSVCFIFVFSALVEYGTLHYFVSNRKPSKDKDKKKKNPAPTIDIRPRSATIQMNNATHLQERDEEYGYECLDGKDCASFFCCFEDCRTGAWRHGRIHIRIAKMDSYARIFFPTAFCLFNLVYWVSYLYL

SMILES	HEPG2 LD50 (HEPG2)	HEK293 LD50 (HEK293)	time spent immobile in the FST (C57B1/6 male mice; [2])	percent of response to GABA [1]	relative size of response to GABA among the four compounds [1]	time spent immobile in the FST (C57B1/6 male mice; [3])
C#Cc1ccc2c(c1)C(c1ccccc1F)=N[C@@H](C)c1c(C(=O)N(C)C)ncn1-2 [GL-I-54, (S)-8-ethynyl-6-(2-fluorophenyl)-N,N,4-trimethyl-4H-benzo[f]imidazo[1,5-a][1,4]diazepine-3-carboxamide]	>400 µM	>400 µM	significant decrease in immobility time; also recorded: significant antidepressant-like action	–	–	–
C#Cc1ccc2c(c1)C(c1ccccc1F)=N[C@H](C)c1c(C(=O)N(C)C)ncn1-2 [GL-II-73, (R)-8-ethynyl-6-(2-fluorophenyl)-N,N,4-trimethyl-4H-benzo[f]imidazo[1,5-a][1,4]diazepine-3-carboxam]	>400 µM	>200 µM	–	increased in the percent of response to GABA	greatest response	significantly decreased the immobility; also recorded: significant antidepressant-like efficacy
C#Cc1ccc2c(c1)C(c1ccccc1F)=N[C@H](C)c1c(C(=O)NCC)ncn1-2 [GL-II-74, (R)—N-ethyl-8-ethynyl-6-(2-fluorophenyl)-4-methyl-4H-benzo[f]imidazo[1,5-a][1,4]diazepine-3-carboxamide]	–	–	significantly decreased the immobility; also recorded: significant antidepressant-like efficacy	increased in the percent of response to GABA	greatest response	significantly decreased the immobility; also recorded: significant antidepressant-like efficacy
C#Cc1ccc2c(c1)C(c1ccccc1F)=N[C@H](C)c1c(C(=O)NC3CC3)ncn1-2 [GL-II-75, (R)—N-cyclopropyl-8-ethynyl-6-(2-fluorophenyl)-4-methyl-4H-benzo[f]imidazo[1,5-a][1,4]diazepine-3-carboxamide]	–	–	significantly decreased the immobility; also recorded: significant antidepressant-like efficacy	increased in the percent of response to GABA	greatest response	significantly decreased the immobility; also recorded: significant antidepressant-like efficacy
C#Cc1ccc2c(c1)C(c1ccccc1F)=N[C@H](C)c1c(C(=O)N3CCCC3)ncn1-2 [GL-II-76, (R)-(8-ethynyl-6-(2-fluorophenyl)-4-methyl-4H-benzo[f]imidazo[1,5-a][1,4]diazepin-3-yl)(pyrrolidin-1-yl)methanone]	>400 µM	>100 µM	–	increased in the percent of response to GABA	–	–
C#Cc1ccc2c(c1)C(c1ccccc1F)=N[C@H](C)c1c(C(=O)NC)ncn1-2 [MP-III-022]	>200 µM	>100 µM	–	–	–	significant decrease in immobility time; also recorded: significant antidepressant-like action
